Data: patent US12421212B2, “Substituted benzenecarboxamides as IL-17A modulators” (DiCE Alpha, Inc., priority 2019, dated 2025)

Molecular target: T1, IL-17A/A (Homo sapiens, UniProt Q16552)
T1 construct: purchased Genscript Z03228
T1 sequence (Q16552 24-155): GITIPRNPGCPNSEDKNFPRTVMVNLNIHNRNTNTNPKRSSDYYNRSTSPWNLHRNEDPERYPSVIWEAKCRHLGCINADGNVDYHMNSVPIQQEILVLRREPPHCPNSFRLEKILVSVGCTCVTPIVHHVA
Test: IL-17A/A HEK-Blue Cell Assay
Type: cell-based
Settings: HEK-Blue IL-17A reporter cell line, SEAP readout at A630, 20 hours incubation with IL-17A/A, top concentration 10 uM, 1 uM or 0.3 uM; for IC50: read-out: IL-17A/A inhibition (pIC50) (converted)

Structure (SMILES) | IC50 [nM] | IL-17A/A inhibition (pIC50)
CCC(=O)N[C@@H](C(=O)N1CCN(C)CC1)[C@@H](C)c1ccc(NC(=O)[C@@H](NC(=O)c2ccnn2CC)C2CCC(F)(F)CC2)c(F)c1 [Compound 240] | 10 to 100 | 
CCn1nccc1C(=O)N[C@H](C(=O)Nc1ccc([C@H](C)[C@@H](NC(=O)c2ccc(CN(C)C)o2)C(=O)N2CCN(C)CC2)cc1F)C1CCCCC1 [Compound 745] |  | X2b (compounds were evaluated up to 1 uM and inhibited activity at 1 uM by less than 20%)
CCC(=O)N[C@@H](C(=O)N1CCN(C)CC1)[C@@H](C)c1ccc(NC(=O)[C@@H](NC(=O)c2ccnn2C(C)C)C2CCCCCC2)cc1 [Compound 232] | 10 to 100 | 
CCC(=O)N[C@@H](C(=O)N1CCN(C)CC1)[C@@H](C)c1ccc(NC(=O)[C@@H](NC(=O)CC2CCNCC2)C2CCCCC2)c(F)c1 [Compound 741] |  | X2b (compounds were evaluated up to 1 uM and inhibited activity at 1 uM by less than 20%)
CCC(=O)N[C@@H](C(=O)N1CCN(C)CC1)[C@@H](C)c1ccc(NC(=O)C(NC(=O)c2ccnn2C(C)C)[C@@H](C)c2ccccc2)c(F)c1 (stereo partly drawn) [Compound 291] | 10 to 100 | 
CCC(=O)N[C@@H](C(=O)N1CCN(C)CC1)[C@@H](C)c1ccc(NC(=O)[C@@H](NC(=O)c2cccn2C(C)C)C2CCCCCC2)c(F)c1 [Compound 274] | < 10 | 
CCC(=O)N[C@H](Cc1ccc(NC(=O)[C@@H](NC(=O)C(F)(F)c2cccnc2)C2CCCCC2)c(F)c1)C(=O)N1CCN(C)CC1 [Compound 205] | 100 to 10000 | 
CCC(=O)N[C@H](Cc1ccc(NC(=O)[C@@H](NC(=O)c2conc2CC)C2CCCCCC2)c(F)c1)C(=O)N1CCN(C)CC1 [Compound 236] | 10 to 100 | 
CCC(=O)NC(C(=O)N1CCN(C(C)C)CC1)[C@@H](C)c1ccc(NC(=O)[C@@H](NC(=O)c2ccnn2CC)[C@H]2CC[C@H](C)CC2)c(F)c1 (stereo partly drawn) [Compound 664] |  | X3b (compounds were evaluated up to 0.3 uM and inhibited activity at 0.3 uM by less than 20%)
CCC(=O)N[C@H](Cc1ccc(NC(=O)[C@@H](NC(=O)c2cnc(CNC(C)=O)n2C)C2CCCCC2)c(F)c1)C(=O)N1CCN(C)CC1 [Compound 717] |  | X2b (compounds were evaluated up to 1 uM and inhibited activity at 1 uM by less than 20%)
CCC(=O)N[C@H](Cc1ccc(NC(=O)[C@@H](NC(=O)c2ccnn2CC)c2ccccc2)c(F)c1)C(=O)N1CCN(C)CC1 [Compound 775] |  | X1b (compounds were evaluated up to 10 uM and inhibited activity at 10 uM by less than 20%)
CCC(=O)N[C@H](Cc1ccc(NC(=O)[C@@H](NC(=O)c2nccn2CC)C2CCCCC2)c(F)c1)C(=O)N1CCN(C)CC1 [Compound 772] |  | X1a (compounds were evaluated up to 10 uM and did not inhibit activity by >80%, however they showed some activity at 10 uM (less than 80% and more than 20%))
CCC(=O)N[C@@H](C(=O)N1CCN(C)CC1)[C@@H](C)c1ccc(NC(=O)[C@@H](NC(=O)c2nonc2CC)[C@H]2CC[C@H](C)CC2)c(F)c1 [Compound 278] | < 10 | 
CCC(=O)N[C@H](Cc1ccc(NC(=O)[C@@H](NC(=O)C(F)(F)c2cccc(OC)c2)C2CCCCC2)c(F)c1)C(=O)N1CCN(C)CC1 [Compound 207] | 100 to 10000 | 
CCC(=O)N[C@@H](C(=O)N1CCN(C)CC1)[C@@H](C)c1ccc(NC(=O)[C@@H](NC(=O)C(F)(F)c2cccc(C#N)c2)C2CCC(F)(F)CC2)c(F)c1 [Compound 263] | < 10 | 
CCC(=O)N[C@@H](C(=O)N1CCN(C)CC1)[C@@H](C)c1ccc(NC(=O)[C@@H](NC(=O)C(F)(F)c2cccc(C#N)c2)[C@H]2CC[C@H](C(F)(F)F)CC2)c(F)c1 [Compound 286] | 10 to 100 | 
CCC(=O)N[C@@H](C(=O)N1CCN(C)CC1)[C@@H](C)c1ccc(NC(=O)C(NC(=O)c2ccnn2CC)C(OC)c2ccc(F)cc2)c(F)c1 (single isomer, unassigned) [Compound 608] |  | X3b (compounds were evaluated up to 0.3 uM and inhibited activity at 0.3 uM by less than 20%)
CCC(=O)N[C@@H](C(=O)N1CCN(C)CC1)[C@@H](C)c1ccc(NC(=O)[C@@H](NC(=O)c2ccnn2-c2ccccc2)C2CCCCC2)c(F)c1 [Compound 738] |  | X2a (compounds were evaluated up to 1 uM and did not inhibit activity by >80%, however they showed some activity at 1 uM (less than 80% and more than 20%))
CCC(=O)N[C@H](Cc1ccc(NC(=O)[C@@H](NC(=O)C(F)(F)c2ccc(OC)nc2)C2CCC(F)(F)CC2)c(F)c1)C(=O)N1CCN(C)CC1 [Compound 215] | 100 to 10000 | 

Second part, led by results:

IC50 [nM] | Structure (SMILES) | IL-17A/A inhibition (pIC50)
10 to 100 | CCC(=O)NC(C(=O)N1CCN(C)CC1)C(C)c1ccc(NC(=O)C(NC(=O)C(F)(F)c2cnc(OC)nc2)C2CCC(C)CC2)c(F)c1 (stereo not drawn) [Compound 405] | 
100 to 10000 | CCn1nccc1C(=O)N[C@H](C(=O)Nc1ccc([C@H](C)[C@@H](NC(=O)c2cscn2)C(=O)N2CCN(C)CC2)cc1F)C1CCCCC1 [Compound 682] | 
< 10 | CCn1nccc1C(=O)N[C@H](C(=O)Nc1ccc([C@H](C)[C@@H](NC(=O)C2CC2)C(=O)N2CCN(C)CC2)cc1F)C1CCCCCC1 [Compound 535] | 
< 10 | CCC(=O)N[C@@H](C(=O)N1CCS(=O)(=O)CC1)[C@@H](C)c1ccc(NC(=O)[C@@H](NC(=O)C(F)(F)c2cccc(C#N)c2)C2CCCCCC2)c(F)c1 [Compound 354] | 
100 to 10000 | CCC(=O)N[C@H](Cc1ccc(NC(=O)[C@@H](NC(=O)c2cnn3c2SCC3)C2CCCCC2)c(F)c1)C(=O)N1CCN(C)CC1 [Compound 688] | 
100 to 10000 | CCn1nccc1C(=O)N[C@H](C(=O)Nc1ccc([C@H](C)[C@@H](NC(=O)c2csnn2)C(=O)N2CCN(C)CC2)cc1F)C1CCCCC1 [Compound 644] | 
10 to 100 | CCn1nccc1C(=O)N[C@H](C(=O)Nc1ccc([C@H](C)C(NC(=O)C(C)F)C(=O)N2CCN(C)[C@H](C)C2)cc1F)[C@H]1CC[C@H](C)CC1 (single isomer, unassigned) [Compound 596] | 
< 10 | CCn1nccc1C(=O)N[C@H](C(=O)Nc1ccc([C@H](C)[C@@H](NC(=O)c2cnns2)C(=O)N2CCN(Cc3ccccc3)CC2)cc1F)[C@H]1CC[C@H](C)CC1 [Compound 441] | 
100 to 10000 | CCC(=O)N[C@H](Cc1ccc(NC(=O)[C@@H](NC(=O)c2ccnn2C(C)C)C2CCC(F)(F)CC2)c(F)c1)C(=O)N1CCN(C)CC1 [Compound 672] | 
10 to 100 | CCn1nccc1C(=O)N[C@H](C(=O)Nc1ccc([C@H](C)[C@@H](NC(=O)c2nonc2C)C(=O)N2CCN(C)CC2)cc1F)[C@H]1CC[C@H](C)CC1 [Compound 473] | 
< 10 | C[C@@H](c1ccc(NC(=O)[C@@H](NC(=O)C(F)(F)c2cncc(C#N)c2)C2CCCCCC2)c(F)c1)[C@@H](NC(=O)c1cnns1)C(=O)N1CCN(C)CC1 [Compound 335] | 
100 to 10000 | CCn1nccc1C(=O)N[C@H](C(=O)Nc1ccc([C@H](C)[C@@H](NC(=O)c2cc(C#N)n[nH]2)C(=O)N2CCN(C)CC2)cc1F)C1CCCCC1 [Compound 655] | 
< 10 | CCn1nccc1C(=O)N[C@H](C(=O)Nc1ccc([C@H](C)[C@@H](NC(=O)C(C)C2CC2)C(=O)N2CCN(C)[C@@H](C)C2)cc1F)[C@H]1CC[C@H](C)CC1 (stereo partly drawn) [Compound 433] | 
10 to 100 | CCn1nccc1C(=O)N[C@H](C(=O)Nc1ccc([C@H](C)[C@@H](NC(=O)C2(F)CCC2)C(=O)N2CCN(C)[C@H](C)C2)cc1F)[C@H]1CC[C@H](C)CC1 [Compound 482] | 
100 to 10000 | CCC(=O)N[C@@H](C(=O)N1CCN(C)CC1)[C@@H](C)c1ccc(NC(=O)[C@@H](NC(=O)c2csc3ccncc23)C2CCCCC2)c(F)c1 [Compound 631] | 
< 10 | CCc1nonc1C(=O)N[C@H](C(=O)Nc1ccc([C@H](C)[C@@H](NC(=O)[C@H](C)OC)C(=O)N2CCN(C)CC2)cc1F)[C@H]1CC[C@H](C)CC1 [Compound 497] | 
100 to 10000 | CCC(=O)N[C@H](Cc1ccc(NC(=O)[C@@H](NC(=O)c2ccnn2CC)C2CCCCC2)c(F)c1)C(=O)N1CCN(C)CC1 [Compound 645] | 
< 10 | CCC(=O)N[C@@H](C(=O)N1CCN(C)C[C@@H]1C)[C@@H](C)c1ccc(NC(=O)[C@@H](NC(=O)c2ccnn2CC)[C@H]2CC[C@H](C)CC2)c(F)c1 [Compound 429] | 
< 10 | CCC(=O)N[C@@H](C(=O)N1CCN(C)CC1)[C@@H](C)c1ccc(NC(=O)[C@@H](NC(=O)C(F)(F)c2cncc(C#N)c2)[C@H]2CC[C@H](C)CC2)c(F)c1 [Compound 530] | 
10 to 100 | CC(C)NC(=O)N[C@@H](C(=O)N1CCN(C)CC1)[C@@H](C)c1ccc(NC(=O)[C@@H](NC(=O)c2ccnn2C(C)C)C2CCCCCC2)c(F)c1 [Compound 328] | 
10 to 100 | CCn1nccc1C(=O)N[C@H](C(=O)Nc1ccc([C@H](C)[C@@H](NC(=O)C2(F)CC2)C(=O)N2CCN(C)CC2)cc1F)[C@H]1CC[C@H](C)CC1 [Compound 406] | 
10 to 100 | CCn1nccc1C(=O)N[C@H](C(=O)Nc1ccc([C@H](C)[C@@H](NS(=O)(=O)CC)C(=O)N2CCN(C)CC2)cc1F)C1CCCCC1 [Compound 313] | 
< 10 | CCC(=O)N[C@@H](C(=O)N1CCN(CC)[C@@H](C)C1)[C@@H](C)c1ccc(NC(=O)[C@@H](NC(=O)c2nonc2CC)[C@H]2CC[C@H](C)CC2)c(F)c1 [Compound 467] | 
< 10 | CCC(=O)N[C@@H](C(=O)N1CCN(C)C(C)(C)C1)[C@@H](C)c1ccc(NC(=O)[C@@H](NC(=O)c2nonc2CC)[C@H]2CC[C@H](C)CC2)c(F)c1 [Compound 464] | 
10 to 100 | CCC(=O)N[C@@H](C(=O)N1CCSCC1)[C@@H](C)c1ccc(NC(=O)[C@@H](NC(=O)c2ccnn2CC)[C@H]2CC[C@H](C)CC2)c(F)c1 [Compound 371] | 
10 to 100 | CCC(=O)N[C@@H](C(=O)N1CCN(C)CC1)[C@@H](C)c1ccc(NC(=O)[C@@H](NC(=O)c2ccnn2CC)[C@H](C)[C@H]2CC[C@H](C)CC2)c(F)c1 [Compound 587] | 
